Measurements: PubChem BioAssay AID256 (DTP/NCI, 2004)
Several values for one entry are separate records, joined by “and”; a condition that tells them apart may be missing. Equal entries are not always repeated. Inconclusive results and toxic doses are left out.

Test system: CD2F1 mice, L1210 leukemia ip, survival T/C
Experiment: NCI In Vivo Anticancer Drug Screen. Data for tumor model L1210 Leukemia (intraperitoneal) in CD2F1 (CDF1) mice
Settings: higher = longer survival
Procedure, shortened: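 Mice carrying a transplanted tumor received test compound or vehicle alone. The value is the measurement in the treated group divided by that in the vehicle-treated control group.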

[1] = endpoint: mean survival time, dose: 200.0 mg/kg/injection, schedule: Q04DX002 (ip), vehicle: saline with Tween-80
[2] = endpoint: mean survival time, dose: 200.0 mg/kg/injection, schedule: Q04DX003 (ip), vehicle: saline with Tween-80
[3] = endpoint: mean survival time, dose: 400.0 mg/kg/injection, schedule: Q04DX002 (ip), vehicle: saline with Tween-80
[4] = endpoint: mean survival time, dose: 100.0 mg/kg/injection, schedule: Q04DX003 (ip), vehicle: saline with Tween-80
[5] = endpoint: mean survival time, dose: 400.0 mg/kg/injection, schedule: Q04DX003 (ip), vehicle: saline with Tween-80
[6] = endpoint: mean survival time, dose: 12.5 mg/kg/injection, schedule: Q04DX003 (ip), vehicle: saline
[7] = endpoint: mean survival time, dose: 25.0 mg/kg/injection, schedule: Q04DX003 (ip), vehicle: saline
[8] = endpoint: mean survival time, dose: 100.0 mg/kg/injection, schedule: Q04DX003 (ip), vehicle: saline
[9] = endpoint: mean survival time, dose: 200.0 mg/kg/injection, schedule: Q04DX003 (ip), vehicle: saline

## CCOC(=O)c1ccc(NC(=O)Nc2ccc(Cl)cc2Cl)cc1
endpoint: mean survival time, dose: 12.5 mg/kg/injection, schedule: Q01DX001 (ip), vehicle: saline with Tween-80
  T/C: 95 % of control
endpoint: mean survival time, dose: 12.5 mg/kg/injection, schedule: Q01DX009 (ip), vehicle: saline with Tween-80
  T/C: 91 % of control and 92 % of control
endpoint: mean survival time, dose: 25.0 mg/kg/injection, schedule: Q01DX001 (ip), vehicle: saline with Tween-80
  T/C: 93 % of control and 96 % of control
endpoint: mean survival time, dose: 25.0 mg/kg/injection, schedule: Q01DX009 (ip), vehicle: saline with Tween-80
  T/C: 88 % of control and 97 % of control
endpoint: mean survival time, dose: 25.0 mg/kg/injection, schedule: Q04DX002 (ip), vehicle: saline with Tween-80
  T/C: 95 % of control and 96 % of control
endpoint: mean survival time, dose: 25.0 mg/kg/injection, schedule: Q04DX003 (ip), vehicle: saline with Tween-80
  T/C: 86 % of control
endpoint: mean survival time, dose: 50.0 mg/kg/injection, schedule: Q01DX001 (ip), vehicle: saline with Tween-80
  T/C: 91 % of control
endpoint: mean survival time, dose: 50.0 mg/kg/injection, schedule: Q01DX009 (ip), vehicle: saline with Tween-80
  T/C: 88 % of control
endpoint: mean survival time, dose: 50.0 mg/kg/injection, schedule: Q04DX002 (ip), vehicle: saline with Tween-80
  T/C: 88 % of control and 96 % of control
endpoint: mean survival time, dose: 50.0 mg/kg/injection, schedule: Q04DX003 (ip), vehicle: saline with Tween-80
  T/C: 91 % of control
endpoint: mean survival time, dose: 200.0 mg/kg/injection, schedule: Q01DX001 (ip), vehicle: saline with Tween-80
  T/C: 92 % of control
[1]
  T/C: 88 % of control
[2]
  T/C: 89 % of control
[3]
  T/C: 86 % of control

## COc1ccc(NC(=S)N(C)C)cc1
[4]
  T/C: 94 % of control
[2]
  T/C: 90 % of control
[5]
  T/C: 92 % of control

## CC(=O)OCC1OC(OC(C)=O)C([NH-])C(OC(C)=O)C1OC(C)=O.CC(=O)OCC1OC(OC(C)=O)C([NH-])C(OC(C)=O)C1OC(C)=O.[Cl][Pt+2][Cl] (stereo not drawn)
[6]
  T/C: 98 % of control
[7]
  T/C: 93 % of control
endpoint: mean survival time, dose: 50.0 mg/kg/injection, schedule: Q04DX003 (ip), vehicle: saline
  T/C: 95 % of control
[8]
  T/C: 90 % of control
[9]
  T/C: 95 % of control

## CCC(=O)c1cc2c(cc1CC)C(C)(C)CCC2(C)C
endpoint: mean survival time, dose: 50.0 mg/kg/injection, schedule: Q01DX001 (ip), vehicle: saline
  T/C: 93 % of control
endpoint: mean survival time, dose: 100.0 mg/kg/injection, schedule: Q01DX001 (ip), vehicle: saline
  T/C: 93 % of control
[8]
  T/C: 101 % of control
endpoint: mean survival time, dose: 200.0 mg/kg/injection, schedule: Q01DX001 (ip), vehicle: saline
  T/C: 93 % of control
[9]
  T/C: 97 % of control
endpoint: mean survival time, dose: 400.0 mg/kg/injection, schedule: Q01DX001 (ip), vehicle: saline
  T/C: 91 % of control
endpoint: mean survival time, dose: 400.0 mg/kg/injection, schedule: Q04DX003 (ip), vehicle: saline
  T/C: 90 % of control

## O=C(CCCN1CCC(O)(c2cccc(C(F)(F)F)c2)CC1)c1ccc(F)cc1
endpoint: mean survival time, dose: 12.5 mg/kg/injection, schedule: Q04DX003 (ip), vehicle: Klucel (hydroxypropylcellulose) (HPC)
  T/C: 95 % of control
endpoint: mean survival time, dose: 25.0 mg/kg/injection, schedule: Q04DX003 (ip), vehicle: Klucel (hydroxypropylcellulose) (HPC)
  T/C: 92 % of control
endpoint: mean survival time, dose: 50.0 mg/kg/injection, schedule: Q04DX003 (ip), vehicle: Klucel (hydroxypropylcellulose) (HPC)
  T/C: 98 % of control
endpoint: mean survival time, dose: 100.0 mg/kg/injection, schedule: Q04DX003 (ip), vehicle: Klucel (hydroxypropylcellulose) (HPC)
  T/C: 97 % of control

## CS(C)=O.[Cl-].[Cl-].[NH-]CC(O)C[N-]CC(O)CN.[Pt+4] (stereo not drawn)
endpoint: median survival time, dose: 10.0 mg/kg/injection, schedule: Q04DX003 (ip), vehicle: saline
  T/C: 97 % of control
endpoint: median survival time, dose: 20.0 mg/kg/injection, schedule: Q04DX003 (ip), vehicle: saline
  T/C: 111 % of control
endpoint: median survival time, dose: 40.0 mg/kg/injection, schedule: Q04DX003 (ip), vehicle: saline
  T/C: 108 % of control
endpoint: median survival time, dose: 50.0 mg/kg/injection, schedule: Q04DX003 (ip), vehicle: saline
  T/C: 94 % of control
endpoint: median survival time, dose: 80.0 mg/kg/injection, schedule: Q04DX003 (ip), vehicle: saline
  T/C: 98 % of control

## O=C(O)c1ccccc1-c1ccccc1C(=O)Nc1ccc2c(c1)Cc1ccccc1-2
endpoint: mean survival time, dose: 62.5 mg/kg/injection, schedule: Q04DX003 (ip), vehicle: saline with Tween-80
  T/C: 101 % of control
endpoint: mean survival time, dose: 125.0 mg/kg/injection, schedule: Q04DX003 (ip), vehicle: saline with Tween-80
  T/C: 98 % of control
endpoint: mean survival time, dose: 250.0 mg/kg/injection, schedule: Q04DX003 (ip), vehicle: saline with Tween-80
  T/C: 98 % of control

## COC(=O)c1ccc(=O)c2nc3/c(=C/O)c(O)cc(=O)c3[nH]c12
endpoint: mean survival time, dose: 5.0 mg/kg/injection, schedule: Q04DX003 (ip), vehicle: saline with Tween-80
  T/C: 107 % of control
endpoint: mean survival time, dose: 10.0 mg/kg/injection, schedule: Q04DX003 (ip), vehicle: saline with Tween-80
  T/C: 90 % of control

## O=C(O)c1cccc(-c2c3ccc(=O)cc-3oc3cc(O)ccc23)c1
[4]
  T/C: 96 % of control
[2]
  T/C: 100 % of control
[5]
  T/C: 96 % of control

## Cc1ccc(Cc2cc(=O)[nH]c(=O)[nH]2)cc1
endpoint: mean survival time, dose: 25.0 mg/kg/injection, schedule: Q01DX009 (ip), vehicle: Klucel (hydroxypropylcellulose) (HPC)
  T/C: 96 % of control
endpoint: mean survival time, dose: 50.0 mg/kg/injection, schedule: Q01DX009 (ip), vehicle: Klucel (hydroxypropylcellulose) (HPC)
  T/C: 100 % of control
endpoint: mean survival time, dose: 100.0 mg/kg/injection, schedule: Q01DX009 (ip), vehicle: Klucel (hydroxypropylcellulose) (HPC)
  T/C: 94 % of control and 96 % of control

## Cc1nc(N)nc(N)c1N1CCN(c2ccc(C(=O)NC(C(=O)O)C(=O)O)cc2)CC1
endpoint: median survival time, dose: 1.88 mg/kg/injection, schedule: Q01DX005 (ip), vehicle: Klucel + Tween-80
  T/C: 117 % of control
endpoint: median survival time, dose: 3.75 mg/kg/injection, schedule: Q01DX005 (ip), vehicle: Klucel + Tween-80
  T/C: 152 % of control
endpoint: median survival time, dose: 7.5 mg/kg/injection, schedule: Q01DX005 (ip), vehicle: Klucel + Tween-80
  T/C: 150 % of control and 163 % of control
endpoint: median survival time, dose: 15.0 mg/kg/injection, schedule: Q01DX005 (ip), vehicle: Klucel + Tween-80
  T/C: 167 % of control and 184 % of control
endpoint: median survival time, dose: 30.0 mg/kg/injection, schedule: Q01DX005 (ip), vehicle: Klucel + Tween-80
  T/C: 181 % of control

## N#CCCN=C1C=CC(=C(c2ccc(NCCC#N)cc2)c2ccccc2Cl)C=C1
[1]
  T/C: 93 % of control
[3]
  T/C: 103 % of control

## c1ccc2c(-c3cnc(-c4ccc(-c5ncc(-c6cccc7ccccc67)o5)cc4)o3)cccc2c1
endpoint: mean survival time, dose: 75.0 mg/kg/injection, schedule: Q01DX001 (ip), vehicle: saline
  T/C: 100 % of control
endpoint: mean survival time, dose: 150.0 mg/kg/injection, schedule: Q01DX001 (ip), vehicle: saline
  T/C: 102 % of control
endpoint: mean survival time, dose: 300.0 mg/kg/injection, schedule: Q01DX001 (ip), vehicle: saline
  T/C: 97 % of control

## C[C@]12CC[C@@H]3c4ccc(OC(=O)Cc5ccc(N(CCCl)CCCl)cc5)cc4CC[C@H]3[C@@H]1CC[C@@H]2OC(=O)Cc1ccc(N(CCCl)CCCl)cc1
endpoint: median survival time, dose: 25.0 mg/kg/injection, schedule: Q01DX009 (ip), vehicle: Klucel (hydroxypropylcellulose) (HPC)
  T/C: 89 % of control
endpoint: median survival time, dose: 50.0 mg/kg/injection, schedule: Q01DX009 (ip), vehicle: Klucel (hydroxypropylcellulose) (HPC)
  T/C: 92 % of control
endpoint: median survival time, dose: 100.0 mg/kg/injection, schedule: Q01DX009 (ip), vehicle: Klucel (hydroxypropylcellulose) (HPC)
  T/C: 94 % of control
endpoint: median survival time, dose: 200.0 mg/kg/injection, schedule: Q01DX009 (ip), vehicle: Klucel (hydroxypropylcellulose) (HPC)
  T/C: 92 % of control
endpoint: median survival time, dose: 400.0 mg/kg/injection, schedule: Q01DX009 (ip), vehicle: Klucel (hydroxypropylcellulose) (HPC)
  T/C: 101 % of control

## CC1CC(C)(C)NC1=O (stereo not drawn)
endpoint: mean survival time, dose: 6.25 mg/kg/injection, schedule: Q04DX003 (ip), vehicle: saline
  T/C: 103 % of control
[6]
  T/C: 104 % of control
[7]
  T/C: 95 % of control

## O=[N+]1C=CC(=NN=c2ccn([O-])cc2)C=C1
endpoint: mean survival time, dose: 100.0 mg/kg/injection, schedule: Q04DX002 (ip), vehicle: saline with Tween-80
  T/C: 100 % of control
[1]
  T/C: 96 % of control

## Cc1cccc(S(=O)(=O)N(C)C)c1
endpoint: mean survival time, dose: 100.0 mg/kg/injection, schedule: Q01DX009 (ip), vehicle: saline with Tween-80
  T/C: 95 % of control
[4]
  T/C: 94 % of control
endpoint: mean survival time, dose: 200.0 mg/kg/injection, schedule: Q01DX009 (ip), vehicle: saline with Tween-80
  T/C: 95 % of control
[2]
  T/C: 92 % of control
endpoint: mean survival time, dose: 400.0 mg/kg/injection, schedule: Q01DX009 (ip), vehicle: saline with Tween-80
  T/C: 92 % of control
[5]
  T/C: 96 % of control

## O=C(CSCC(=O)c1ccccc1)c1ccccc1
endpoint: mean survival time, dose: 400.0 mg/kg/injection, schedule: Q04DX002 (ip), vehicle: Klucel (hydroxypropylcellulose) (HPC)
  T/C: 89 % of control

## NC(=O)c1ncc[nH]c1=O
[4]
  T/C: 103 % of control
[2]
  T/C: 91 % of control
